Test results taken from patent US4950686A, “Anti-mycoplasma agent” (Shionogi & Co., Ltd., priority 1986, dated 1990).
Structures can show the parent of a compound that is named as a salt.

Assays:
[1] = test system: Mycoplasma hyopneumoniae ST-11 (standard strain); assay: Anti-mycoplasma activity in vitro (MIC, broth dilution), strain ST-11; type: cell-based; details: Mh ST-11
Method in brief: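 MIC by broth dilution in Hanks' solution with 0.5% lactoalbumin, yeast, equine serum and phenol red, pH 7.4-7.6. Inoculum: 3-4-day culture, turned yellow, diluted 10-fold in broth (subcultured first if yellowing took over 4 days).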

[2] = test system: Mycoplasma gallisepticum T-7-T (wild strain, tylosin-resistant); assay: Mycoplasma gallisepticum air-sac infection method in chicken, strain T-7-T;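 as to Index of Isolation: index = (P×1 + Q×2 + R×3)/S with range 0 to 6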; type: in vivo, Mycoplasma gallisepticum; SPF chicken (white leghorn); details: 100 mg/kg × once oral, 10 mg/ml sol. b
Experimental: (2) Test of Effectiveness Mycoplasma gallisepticum air-sac infection method
T-7-T (wild strain, tylosin-resistant)
Inoculation: To the right air-sac of 9 days old SPF chicken (a white leghorn) which has abstained from water and feed one day before is inoculated 0.20-0.25 ml/chicken of fresh mycoplasma culture incubated for 24-48 hr and diluted with broth (usually 100 times). The concentration in Table 2 is shown in a unit of mg/ml.
Medium: Chick PPLO broth supplemented with 15% equine serum (Eiken Kagaku Co., Ltd.)
Administration: A compound of this invention dissolved or suspended in the following solution is orally and forcibly administered once by a cannula immediately after the infection.
Anatomization and Isolation of Microorganism: The chickens are anatomized 5 days after the infection, and the right and left air sacs are investigated whether they are attacked with a disease or not. The change caused by the disease is represented in four degrees; -: no change, +: slight, ++: medium and +++: serious. Microorganism is isolated from the right and left air-sacs and the trachea by using a sterilized applicator.
Judgement: Judgement is done through an index of an air-sac disease and an index of a microorganism-isolation.
Index of an air-sac-disease: First, indexes in the right and left air-sacs are separately calculated according to the following formula;
{degree of disease (0-3)×chickens}/anatomized chickens
and the index is calculated by the following formula;
(index of right air-sac)×1+(index of left air-sac)×2
Index of a microorganism isolation:
P: chickens from the right air-sac of which microorganism is isolated,
Q: chickens from the trachea of which microorganism is isolated,
R: chickens from the left air-sac of which microorganism is isolated, and
S: chickens investigated.

[3] = test system: Mycoplasma gallisepticum S6 (standard strain); assay: Mycoplasma gallisepticum air-sac infection method in chicken, strain S6; type: in vivo, Mycoplasma gallisepticum; SPF chicken (white leghorn)
Method in brief: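 Right air sac of 9-day-old SPF white leghorn chickens (water/feed withheld 1 day) inoculated with 24-48 h culture diluted ~100×; compound given once orally by cannula right after infection. At day 5, air-sac lesions scored 0-3 (index = right + 2×left), and organisms isolated from both air sacs and trachea.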

[4] = test system: Mycoplasma gallisepticum T-7-T (wild strain, tylosin-resistant); assay: Anti-mycoplasma activity in vitro (MIC, broth dilution), strain T-7-T; type: cell-based; details: Mg T-7-T, 37° C., 7 days
Method in brief: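 Broth dilution MIC in chick PPLO broth with 20% equine serum, using 2-fold agent dilutions. Inoculum of 24-48 h culture diluted to 10^6 CCU/ml before use. Incubated 7 days at 37° C.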

[5] = Acute toxicity test in chickens; type: in vivo, SPF chickens of layer type; details: 400 mg/kg or 200 mg/kg once oral, 2 weeks
Experimental: Acute toxicity tests on tropolone L-lysine salt and O-acetyltropolone were performed according to the following method.
The tests had been done on 15 days old SPF chickens of layer type (5 males and 5 females) for 2 weeks. The above two compounds suspended in 5% gum arabic are orally and forcibly administered once at a dose of 400 mg/kg or 200 mg/kg. To a control group is administered 5% gum arabic.

[6] = test system: Mycoplasma gallisepticum S6 (standard strain); assay: Anti-mycoplasma activity in vitro (MIC, broth dilution), strain S6; type: cell-based; details: Mg S6, 37° C., 7 days
Method in brief: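 Chick PPLO broth with 20% equine serum; 2-fold serial agent dilutions inoculated with culture diluted to 10^6 CCU/ml (inoculum concentration before addition). Incubated 7 days at 37 °C; MIC by broth dilution.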

[7] = test system: Mycoplasma gallisepticum MR-1 (wild strain, tylosin-resistant); assay: Anti-mycoplasma activity in vitro (MIC, broth dilution), strain MR-1; type: cell-based; details: Mg MR-1, 37° C., 7 days
Method in brief: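 Broth dilution in chick PPLO broth with 20% equine serum; 2-fold compound dilutions, inoculum diluted to 10^6 CCU/ml. Incubated 7 days at 37 °C; MIC recorded.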

[8] = 100 mg/kg × once oral, 10 mg/ml sol. b, inoculum 1.2 × 10^6
[9] = 200 mg/kg × once oral, 20 mg/ml sol. b, inoculum 1.18 × 10^6

## O=c1cccccc1O [Compound 11, Tropolone L-lysine salt]
[1]
  MIC: 0.78 µg/mL
[2]; inoculum 10^2
  Change of air-sac, left: + (chickens): 0
  Change of air-sac, left: ++ (chickens): 0
  Change of air-sac, left: +++ (chickens): 0
  Change of air-sac, left: - (chickens): 8
  Change of air-sac, right: + (chickens): 0
  Change of air-sac, right: ++ (chickens): 0
  Change of air-sac, right: +++ (chickens): 0
  Change of air-sac, right: - (chickens): 8
  Isolation, L (left air-sac): 1
  Isolation, R (right air-sac): 4
  Isolation, T (trachea): 5
  Mycoplasma Isolated Chickens: 5
[2]; inoculum 10^2, range 0-6.0
  Index of Isolation: 2.90
[2]; inoculum 10^2, range 0-9.0
  Index of Disease: 0
[3]; [8]
  Change of air-sac, left: + (chickens): 0
  Change of air-sac, left: ++ (chickens): 0
  Change of air-sac, left: +++ (chickens): 0
  Change of air-sac, left: - (chickens): 8
  Change of air-sac, right: + (chickens): 0
  Change of air-sac, right: ++ (chickens): 0
  Change of air-sac, right: +++ (chickens): 0
  Change of air-sac, right: - (chickens): 8
  Isolation, L (left air-sac): 2
  Isolation, R (right air-sac): 0
  Isolation, T (trachea): 1
  Mycoplasma Isolated Chickens: 2
[3]; 100 mg/kg × once oral, 10 mg/ml sol. b, inoculum 1.2 × 10^6, range 0-6.0
  Index of Isolation: 0.54
[3]; 100 mg/kg × once oral, 10 mg/ml sol. b, inoculum 1.2 × 10^6, range 0-9.0
  Index of Disease: 0
[3]; [9]
  Change of air-sac, left: + (chickens): 0
  Change of air-sac, left: ++ (chickens): 0
  Change of air-sac, left: +++ (chickens): 0
  Change of air-sac, left: - (chickens): 5
  Change of air-sac, right: + (chickens): 0
  Change of air-sac, right: ++ (chickens): 0
  Change of air-sac, right: +++ (chickens): 0
  Change of air-sac, right: - (chickens): 5
  Isolation, L (left air-sac): 0
  Isolation, R (right air-sac): 4
  Isolation, T (trachea): 0
  Mycoplasma Isolated Chickens: 4
[3]; 200 mg/kg × once oral, 20 mg/ml sol. b, inoculum 1.18 × 10^6, range 0-6.0
  Index of Isolation: 0.8
[3]; 200 mg/kg × once oral, 20 mg/ml sol. b, inoculum 1.18 × 10^6, range 0-9.0
  Index of Disease: 0
[4]
  MIC: 0.78 µg/mL
[5]
  deaths: none of chickens died
[5]; vs control group
  increase of weight: equal to the control group
[6]
  MIC: 0.39 µg/mL
[7]
  MIC: 0.78 µg/mL
